The source of these data is patent publication US6479553B1, “Use of certain affinity NMDA antagonists as antidepressants” (AstraZeneca AB, priority 1999, dated 2002).

Entries after “also recorded” stand apart in the source; their conditions may differ. Marks after values point to notes of the source that are not given here.

What all share (type): in vivo
Series [1] concerns male NMRI mice. Put plainly: Forced swim test in mice. The settings on record: for Average Immobility Time: forced swim test, 60 minutes pre-test, last four minutes of test.
In series [2] the test system is male NMRI mice. Put plainly: Small tube test in mice. As to conditions: for Average Immobility Time: small tube test, 60 minutes pre-test, last four minutes of test; for Effect on immobility in the small tube test, in words: summary of Table 2, check for non-specific stimulant activity.
Another series relates to rat. The experiment in a line: Test for possible sedative activity (motor activity) in the rat. The settings on record: 200 mg/kg, up to fifty times the oral effective dose in the MES test. How it is done: (S)-1-Phenyl-2-(2-pyridyl)ethanamine was further tested for possible sedative activity in the rat. At doses up to fifty times the oral effective dose in the maximum electroshock seizure test (MES), (S)-1-phenyl-2-(2-pyridyl)ethanamine induced no changes in four parameters of motor activity, namely, distance travelled, ambulatory time, stereotyped time and resting time. The dose administered was 200 mg/kg.

Turning to `Cl.Cl.N[C@@H](Cc1ccccn1)c1ccccc1` [(S)-1-phenyl-2-(2-pyridyl)ethanamine dihydrochloride], the “Average Immobility Time” value in the series with male NMRI mice [1] (dose 1 mg/kg i.p.) was 158 s; in the series with male NMRI mice [1] (dose 3 mg/kg i.p.), 120* seconds; in the series with male NMRI mice [1] (dose 10 mg/kg i.p.), 145* seconds; in the series with male NMRI mice [2] (dose 1 mg/kg i.p.), 192 s; with male NMRI mice [2] (dose 3 mg/kg i.p.), 210* seconds; in the series with male NMRI mice [2] (dose 10 mg/kg i.p.), 201 s. Further, the “Effect in the forced swim test (reduction in immobility time), in words” value in the series with male NMRI mice [1] (summary of Table 1, dihydrochloride) is on record as “positive effects; also recorded: have activity in the mouse forced swim test”. In addition, the “Effect on immobility in the small tube test, in words” value (shortened to “Effect on immobility”) in the series with male NMRI mice [2] is listed as “little effect”. In the series with rat, the “Changes in four parameters of motor activity (distance travelled, ambulatory time, stereotyped time and resting time)” value is reported as “no changes”.

`CN(C)CCCN1c2ccccc2CCc2ccccc21` [Imipramine, imipramine]: the “Average Immobility Time” value is 143* seconds in the series with male NMRI mice [1] (dose 10 mg/kg i.p.) and 202 s in the series on male NMRI mice [2] (dose 10 mg/kg i.p.). In the series with male NMRI mice [1] (summary of Table 1), the “Effect in the forced swim test (reduction in immobility time), in words” value is “very similar result to that observed with (S)-1-phenyl-2-(2-pyridyl)ethanamine”. Besides, the “Effect on immobility” value in the series on male NMRI mice [2] is given as “little effect”.

For (+)-MK 801, the “Average Immobility Time” value in the series with male NMRI mice [1] (dose 0.01 mg/kg i.p.) was 155 s; in the series on male NMRI mice [1] (dose 0.03 mg/kg i.p.), 164 s; with male NMRI mice [1] (dose 0.1 mg/kg i.p.), 80* seconds; with male NMRI mice [1] (dose 0.3 mg/kg i.p.), 10* seconds; with male NMRI mice [2] (dose 0.01 mg/kg i.p.), 190 s; with male NMRI mice [2] (dose 0.03 mg/kg i.p.), 173 s. The “Average Immobility Time” value with male NMRI mice [2] (dose 0.1 mg/kg i.p.) was 128* seconds; with male NMRI mice [2] (dose 0.3 mg/kg i.p.) it was 84* seconds. Besides, the “Effect in the forced swim test (reduction in immobility time), in words” value with male NMRI mice [1] (summary of Table 1) is “positive effects”. Moreover, the “Effect on immobility” value in the series with male NMRI mice [2] is given as “reduced immobility”.
